Measured values published in ChEMBL document CHEMBL4837206, “Synthesis and biological evaluation of novel isoxazole-piperazine hybrids as potential anti-cancer agents with inhibitory effect on liver cancer stem cells” (Eur J Med Chem, 2021).
Calls of active or inactive are those of the source. The rule behind the calls is not given here.

How the values were obtained:
[1] = system: Mahlavu; assay: Inhibition of cell stemness in human Mahlavu cells assessed as decrease in OCT4 level at 10 uM measured after 72 hrs by flow cytometry analysis; format: functional, cell-based
[2] = system: Mahlavu; assay: Inhibition of cell stemness in human Mahlavu cells assessed as decrease in NANOG level at 10 uM measured after 72 hrs by flow cytometry analysis; format: functional, cell-based
[3] = system: Mahlavu; assay: Cell cycle arrest in human Mahlavu cells assessed as increase in accumulation of cells at G0/G1 phase at 5 uM measured after 48 hrs by propidium iodide staining based flow cytometric analysis; format: functional
[4] = molecular target: T1, Serine/threonine-protein kinase AKT (Homo sapiens) (UniProt P31751+Q9Y243+P31749); assay: Inhibition of Akt phosphorylation at Ser473 residue in human SNU-475 cells at 5 uM measured after 72 hrs by Western blot analysis; format: cell-based
[5] = system: SNU-475; assay: Cell cycle arrest in human SNU-475 cells assessed as increase in accumulation of cells at S phase at 5 uM measured after 48 hrs by propidium iodide staining based flow cytometric analysis; format: functional
[6] = system: Huh-7; assay: Induction of apoptosis in human Huh-7 cells assessed as nuclear fragmentation measured after 48 hrs by Hoechst33258 staining based inverted fluorescent microscopic method; format: functional, cell-based
[7] = system: Mahlavu; assay: Inhibition of cell stemness in human Mahlavu cells assessed as decrease in NANOG mRNA level at 10 uM measured after 72 hrs by RT-qPCR analysis; format: functional, cell-based
[8] = system: Mahlavu; assay: Induction of apoptosis in human Mahlavu cells assessed as nuclear fragmentation measured after 48 hrs by Hoechst33258 staining based inverted fluorescent microscopic method; format: functional, cell-based
[9] = system: Mahlavu; assay: Activation of p53 harboring G249T mutant in human Mahlavu cells assessed as upregulation of p21 protein expression at 5 uM incubated for 72 hrs by western blot analysis; format: cell-based
[10] = system: SNU-475; assay: Activation of p53 harboring A239G/T275C/A288G mutant in human SNU-475 cells assessed as upregulation of p53 phosphorylation at Ser15 residue at 5 uM incubated for 72 hrs by western blot analysis; format: cell-based; conditions: filed as activator
[11] = system: Huh-7; assay: Antiproliferative activity against human Huh-7 cells assessed as reduction in cell viability measured after 40 to 150 hrs by RT-CES analysis; format: functional, cell-based; conditions: time 40-150 hrs
[12] = system: HepG2; assay: Induction of apoptosis in human HepG2 cells assessed as apoptotic body formation measured after 48 hrs by Hoechst33258 staining based inverted fluorescent microscopic method; format: functional, cell-based
[13] = system: Mahlavu; assay: Induction of apoptosis in human Mahlavu cells assessed as apoptotic body formation measured after 48 hrs by Hoechst33258 staining based inverted fluorescent microscopic method; format: functional, cell-based
[14] = system: Huh-7; assay: Inhibition of cell stemness in human Huh-7 cells assessed as reduction in size of tumor spheres at 10 uM incubated for 72 hrs followed by incubation in sphere formation medium for 14 days by microscopic analysis; format: functional, cell-based; conditions: time 17.0 day
[15] = system: HepG2; assay: Antiproliferative activity against human HepG2 cells assessed as reduction in cell viability measured for 180 hrs by RT-CES analysis; format: functional, cell-based; conditions: dose 2.5-10 µM
[16] = system: Huh-7; assay: Inhibition of cell stemness in human Huh-7 cells assessed as decrease in OCT4 mRNA level at 10 uM measured after 72 hrs by RT-qPCR analysis; format: functional, cell-based
[17] = system: Huh-7; assay: Inhibition of cell stemness in human Huh-7 cells assessed as reduction in tumor spheres count at 10 uM incubated for 72 hrs followed by incubation in sphere formation medium for 7 days by microscopic analysis; format: functional, cell-based; conditions: time 10.0 day
[18] = molecular target: T1, Serine/threonine-protein kinase AKT (Homo sapiens); assay: Inhibition of Akt phosphorylation at Ser473 residue in human HepG2 cells at 5 uM measured after 72 hrs by Western blot analysis; format: cell-based
[19] = system: Mahlavu; assay: Antiproliferative activity against human Mahlavu cells assessed as reduction in cell viability measured after 90 hrs by RT-CES analysis; format: functional, cell-based
[20] = molecular target: Mitogen-activated protein kinase; ERK1/ERK2 (Homo sapiens) (UniProt P27361+P28482); assay: Downregulation of ERK1/2 phosphorylation at T202/Y204 residue in human HepG2 cells at 5 uM measured after 72 hrs by Western blot analysis; format: cell-based
[21] = system: Huh-7; assay: Inhibition of cell stemness in human Huh-7 cells assessed as decrease in NANOG mRNA level at 10 uM measured after 72 hrs by RT-qPCR analysis; format: functional, cell-based
[22] = system: SNU-475; assay: Induction of apoptosis in human SNU-475 cells assessed as apoptotic body formation measured after 48 hrs by Hoechst33258 staining based inverted fluorescent microscopic method; format: functional, cell-based
[23] = system: SNU-475; assay: Activation of p53 harboring A239G/T275C/A288G mutant in human SNU-475 cells assessed as upregulation of p53 acetylation at Lys382 residue at 5 uM incubated for 72 hrs by western blot analysis; format: cell-based; conditions: filed as activator
[24] = system: Mahlavu; assay: Activation of p53 harboring G249T mutant in human Mahlavu cells assessed as upregulation of p53 phosphorylation at Ser15 residue at 5 uM incubated for 72 hrs by western blot analysis; format: cell-based; conditions: filed as activator

T1 sequence (P31749 whole entry, looked up): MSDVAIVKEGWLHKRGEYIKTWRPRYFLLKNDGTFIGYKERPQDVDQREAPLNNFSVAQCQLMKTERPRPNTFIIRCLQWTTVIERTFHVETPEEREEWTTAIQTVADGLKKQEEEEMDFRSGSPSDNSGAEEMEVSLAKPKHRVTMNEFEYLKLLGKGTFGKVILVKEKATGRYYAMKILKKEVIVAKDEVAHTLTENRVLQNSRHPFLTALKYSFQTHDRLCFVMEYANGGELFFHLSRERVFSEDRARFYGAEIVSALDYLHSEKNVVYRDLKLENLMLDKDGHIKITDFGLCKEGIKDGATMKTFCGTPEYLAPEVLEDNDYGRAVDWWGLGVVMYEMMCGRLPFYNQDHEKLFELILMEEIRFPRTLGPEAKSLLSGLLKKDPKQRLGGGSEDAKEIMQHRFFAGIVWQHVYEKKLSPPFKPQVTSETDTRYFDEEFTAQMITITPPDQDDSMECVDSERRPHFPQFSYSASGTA
T1 sequence (P31751 whole entry, looked up): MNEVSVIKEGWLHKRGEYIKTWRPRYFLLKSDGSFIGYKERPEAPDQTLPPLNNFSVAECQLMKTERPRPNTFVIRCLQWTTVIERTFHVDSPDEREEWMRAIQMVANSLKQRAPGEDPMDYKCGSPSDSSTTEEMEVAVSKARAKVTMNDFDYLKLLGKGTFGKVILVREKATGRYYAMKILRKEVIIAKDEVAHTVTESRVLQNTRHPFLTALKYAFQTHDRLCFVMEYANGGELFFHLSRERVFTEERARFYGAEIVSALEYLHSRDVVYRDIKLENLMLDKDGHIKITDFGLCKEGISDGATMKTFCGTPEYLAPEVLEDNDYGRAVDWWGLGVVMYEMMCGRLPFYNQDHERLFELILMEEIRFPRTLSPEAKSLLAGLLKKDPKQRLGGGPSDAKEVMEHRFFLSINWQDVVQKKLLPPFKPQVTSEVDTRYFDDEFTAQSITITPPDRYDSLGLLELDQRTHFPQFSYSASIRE
T1 sequence (Q9Y243 whole entry, looked up): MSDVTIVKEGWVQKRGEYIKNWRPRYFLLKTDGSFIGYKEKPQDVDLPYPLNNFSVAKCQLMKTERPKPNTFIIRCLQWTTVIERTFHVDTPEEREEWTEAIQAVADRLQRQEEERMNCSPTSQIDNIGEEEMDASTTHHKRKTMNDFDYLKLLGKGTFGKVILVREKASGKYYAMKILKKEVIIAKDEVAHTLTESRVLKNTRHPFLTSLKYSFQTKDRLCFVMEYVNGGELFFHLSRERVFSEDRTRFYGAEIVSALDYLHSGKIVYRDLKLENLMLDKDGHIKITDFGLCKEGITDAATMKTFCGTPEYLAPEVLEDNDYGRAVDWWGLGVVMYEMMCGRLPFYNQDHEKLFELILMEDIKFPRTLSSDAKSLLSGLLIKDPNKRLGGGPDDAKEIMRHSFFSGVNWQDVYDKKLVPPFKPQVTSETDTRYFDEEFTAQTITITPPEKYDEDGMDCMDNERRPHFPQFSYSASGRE
Sequence of Mitogen-activated protein kinase; ERK1/ERK2 (Homo sapiens) (P27361 whole entry, looked up): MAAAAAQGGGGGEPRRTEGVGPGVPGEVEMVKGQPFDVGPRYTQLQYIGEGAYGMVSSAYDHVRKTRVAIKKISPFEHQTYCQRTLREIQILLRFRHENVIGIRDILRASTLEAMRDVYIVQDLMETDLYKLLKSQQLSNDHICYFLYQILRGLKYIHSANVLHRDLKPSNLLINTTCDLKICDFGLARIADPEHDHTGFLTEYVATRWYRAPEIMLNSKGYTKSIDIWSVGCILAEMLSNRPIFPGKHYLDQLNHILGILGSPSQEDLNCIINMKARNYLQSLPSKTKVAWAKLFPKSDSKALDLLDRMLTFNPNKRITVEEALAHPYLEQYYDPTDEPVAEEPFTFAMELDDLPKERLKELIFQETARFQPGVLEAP
Sequence of Mitogen-activated protein kinase; ERK1/ERK2 (Homo sapiens) (P28482 whole entry, looked up): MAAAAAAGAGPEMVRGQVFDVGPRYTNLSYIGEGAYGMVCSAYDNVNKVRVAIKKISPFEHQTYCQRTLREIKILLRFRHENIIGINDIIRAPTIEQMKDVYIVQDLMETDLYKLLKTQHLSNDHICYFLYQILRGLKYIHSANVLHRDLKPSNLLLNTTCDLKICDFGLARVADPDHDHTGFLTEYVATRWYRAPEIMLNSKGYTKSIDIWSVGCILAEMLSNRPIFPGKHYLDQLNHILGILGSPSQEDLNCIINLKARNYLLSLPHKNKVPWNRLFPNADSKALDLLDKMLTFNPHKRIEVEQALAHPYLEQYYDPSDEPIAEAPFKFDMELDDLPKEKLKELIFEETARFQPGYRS

Row | inhibition [18] | inhibition [20] | SMILES | inhibition [1] | inhibition [2] | Activity [3] | Activity [5] | Activity [6] | Activity [8] | Activity [9] | Activity [10] | Activity [11] | Activity [12] | Activity [13] | inhibition [14] | Activity [15] | inhibition [16] | inhibition [17] | Activity [19] | inhibition [21] | Activity [22] | further results
1 | inactive | Active | N#Cc1cccc(COc2ccc(-c3cc(CN4CCN(Cc5ccc(C(F)(F)F)cc5)CC4)no3)cc2F)c1 | Active | Active | Active | Active | Active | Active | inactive | Active | Active | Active | Active | Active | Dose-Dependent Effect | Active | Active | Active | Active | Active | inhibition [4]: Active; inhibition [7]: Active; Activity [23]: Active
2 | inactive | Active | FC(F)(F)c1ccc(CN2CCN(Cc3cc(-c4ccc(OCc5ccccc5)cc4)on3)CC2)cc1 | Active | Active | Active | Active | Active | Active | inactive | Active | Active | Active | Active | Active | Dose-Dependent Effect | Active | Active | Active | Active | Active | Activity [24]: Active
